Test results reported in US20050277779A1, “Antifungal and antimycobacterial basiliskamides” (priority 1998, published 2005).
Converted amounts (≈) assume the structure as drawn.

Columns and labels:
human tumor cell line = test: Cytotoxicity testing, cytopathic effect; assay type: cell-based; design: key: 1: slight change in morphology vs. control; 2: occasional rounding, vacuolization, or granularity; 3: rounding, vacuolization, detachment of 50% of cells; 4: destruction of monolayer
Method: (§1) Cytotoxicity Testing of Basiliskamide A: Serial dilutions of basiliskamide A were prepared in cell culture medium and tested for toxicity for normal human fibroblast cells and for human tumor cell line. […] The appearance of the cells was assessed after 48 hours exposure to the compounds. Basiliskamide produced no cytotoxicity for normal human fibroblast cells at concentrations less than 100 μg/ml compared to amphotericin B (ampho) which was toxic at concentrations as low as 25 μg/ml.

[1] = tested on: normal human fibroblast cells; test: Cytotoxicity testing, cytopathic effect; assay type: cell-based; design: key to Cytopathic Effect (48 hours): 1: slight change in morphology vs. control; 2: occasional rounding, vacuolization, or granularity; 3: rounding, vacuolization, detachment of 50% of cells; 4: destruction of monolayer; settings: for Cytopathic Effect (48 hours): Human Fibroblast
Method: as §1

[2] = tested on: Clinical Isolates of Candida albicans; test: Macrobroth dilution against 7 clinical isolates
M. avium-intracellulare = assay type: cell-based, Mycobacterium avium-infracellulare; settings: agar dilution
[3] = tested on: Mycobacterium tuberculosis; test: microbe, parasite or virus in culture; settings: read-out: Minimal Inhibitory Concentration
Method: (§2) Antimycobacterial Activity of the Basiliskamides: The Basiliskamides were tested for antimycobacierial activity using a standardized agar dilution method (Underlied, C B and Salfinger, S. 1995. In Manual of Clinical Microbiology, Murray, Baron, Pfaller, Tenover, Yolken (Eds.), ASM Press, page 1395-1404).

Aspergillus fumigatus [4] = test: Antifungal agar dilution
Trichophyton rubrum [5] = test: Antifungal agar dilution; settings: read-out: Minimal Inhibitory Concentration
Trichophyton rubrum [6] = test: Antifungal macrobroth dilution (NCCLS M27-A); settings: read-out: Minimal Inhibitory Concentration
Aspergillus fumigatus [7] = test: Antifungal macrobroth dilution (NCCLS M27-A); settings: read-out: Minimal Inhibitory Concentration
[8] = tested on: Mycobacterium tuberculosis; settings: agar dilution
Method: as §2

Candida albicans [9] = test: Antifungal macrobroth dilution (NCCLS M27-A); settings: read-out: Minimal Inhibitory Concentration
Candida albicans [10] = test: Antifungal agar dilution
[11] = read-out: Minimal Inhibitory Concentration

C[C@@H]1[C@H](O)[C@@H](C)/C=C/C=C/C=C/C=C/C=C/C=C/C=C/[C@H](O[C@@H]2O[C@H](C)[C@@H](O)[C@H](N)[C@@H]2O)C[C@@H]2O[C@](O)(C[C@@H](O)C[C@@H](O)[C@H](O)CC[C@@H](O)C[C@@H](O)CC(=O)O[C@H]1C)C[C@H](O)[C@H]2C(=O)O [Amphotericin B]
Cytopathic Effect (48 hours) (human tumor cell line; 0.78 μg/ml): 0
Cytopathic Effect (48 hours) (human tumor cell line; 1.57 μg/ml): 0
Cytopathic Effect (48 hours) (human tumor cell line; 3.12 μg/ml): 0
Cytopathic Effect (48 hours) (human tumor cell line; 6.25 μg/ml): 0
Cytopathic Effect (48 hours) (human tumor cell line; 12.5 μg/ml): 0
Cytopathic Effect (48 hours) (human tumor cell line; 25 μg/ml): 1
Cytopathic Effect (48 hours) (human tumor cell line; 50 μg/ml): 3
Cytopathic Effect (48 hours) (human tumor cell line; 100 μg/ml): 4
Cytopathic Effect (48 hours) ([1]; 0.78 μg/ml): 0
Cytopathic Effect (48 hours) ([1]; 1.57 μg/ml): 0
Cytopathic Effect (48 hours) ([1]; 3.12 μg/ml): 0
Cytopathic Effect (48 hours) ([1]; 6.25 μg/ml): 0
Cytopathic Effect (48 hours) ([1]; 12.5 μg/ml): 1
Cytopathic Effect (48 hours) ([1]; 25 μg/ml): 2
Cytopathic Effect (48 hours) ([1]; 50 μg/ml): 2
Cytopathic Effect (48 hours) ([1]; 100 μg/ml): 4
concentrations at which toxic ([1]; normal human fibroblast cells, 48 hours exposure): ≥ 25 µg/mL
Minimal Inhibitory Concentration ([2]; C. albicans clinical isolate 8167): 0.5 µg/mL
Minimal Inhibitory Concentration ([2]; C. albicans clinical isolate 8362): 0.5 µg/mL
Minimal Inhibitory Concentration ([2]; C. albicans clinical isolate 8363): 0.5 µg/mL
Minimal Inhibitory Concentration ([2]; C. albicans clinical isolate 8364): 0.5 µg/mL
Minimal Inhibitory Concentration ([2]; C. albicans clinical isolate 8365): 0.5 µg/mL
Minimal Inhibitory Concentration ([2]; C. albicans clinical isolate 8366): 0.5 µg/mL
Minimal Inhibitory Concentration ([2]; C. albicans clinical isolate 8367): 0.5 µg/mL

CC[C@@H](C)[C@H](O)[C@H](C)[C@@H](C/C=C/C=C\C(N)=O)OC(=O)/C=C/c1ccccc1 [Basiliskamide B]
MIC (M. avium-intracellulare; Mycobacterium, M. avium-intracellulare, read-out: Minimal Inhibitory Concentration): > 100 µg/mL
activity against M. avium-intracellulare (in words) (M. avium-intracellulare): relatively inactive
MIC [3]: 50 µg/mL (≈ 130 µM)
activity relative to YL-03709B-A (Aspergillus fumigatus [4]; agar dilution, from Table 5): significantly more active
MIC (Aspergillus fumigatus [4]; [11]): 5 µg/mL (≈ 13 µM)
MIC (Trichophyton rubrum [5]): 5 µg/mL (≈ 13 µM)
MIC (Trichophyton rubrum [6]): 4 µg/mL (≈ 10.4 µM)
MIC (Aspergillus fumigatus [7]): ≥ 32 µg/mL
activity against M. tuberculosis (in words) [8]: have activity
MIC (Candida albicans [9]): ≥ 32 µg/mL
activity relative to YL-03709B-A (Candida albicans [10]; agar dilution, from Table 5): significantly more active
MIC (Candida albicans [10]; [11]): 3.1 µg/mL (≈ 8.04 µM)
